test system: Bmi-1 protein; assay: Sandwich ELISA Assay (Bmi-1 protein level in HT-1080 cells after compound treatment); format: cell-based; conditions: Table 1, Bmi-1 sandwich ELISA, read-out: ELISA EC50 value for Bmi-1 protein
Outline: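 HT-1080 cells exposed to compounds for 40–48 h at 37 °C (0.5% DMSO final), then lysed. Bmi-1 in lysates measured by sandwich ELISA (mouse monoclonal capture, rabbit anti-Bmi-1 detection, HRP anti-rabbit, TMB), read at OD450 with OD570 reference against a recombinant Bmi-1 standard curve (0–8000 pg/mL).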

| EC50 | Structure (SMILES) |
| --- | --- |
| 10 to 100 nM | Cc1nc2c(n1-c1cncc(Nc3ccc(OC(F)(F)F)cc3)n1)CCCC2 [compound 268, 6-(2-methyl-4,5,6,7-tetrahydro-1H-benzimidazol-1-yl)-N-[4-(trifluoromethoxy)phenyl]pyrazin-2-amine] |
| 1 to 10 nM | Cc1nc2ncc(F)cc2n1-c1cncc(Nc2ccc(C(F)(F)F)cc2)n1 [compound 270, 6-(6-fluoro-2-methyl-1H-imidazo[4,5-b]pyridin-1-yl)-N-[4-(trifluoromethyl)phenyl]pyrazin-2-amine] |
| 1 to 10 nM | CCc1nc2ncc(F)cc2n1-c1cncc(Nc2ccc(C(F)(F)F)cc2)n1 [compound 271, 6-(2-ethyl-6-fluoro-1H-imidazo[4,5-b]pyridin-1-yl)-N-[4-(trifluoromethyl)phenyl]pyrazin-2-amine] |
| 10 to 100 nM | N#Cc1cc(Nc2ccc(C(F)(F)F)cc2)nc(-c2c(C(F)(F)F)nc3ccc(F)cn23)c1 [compound 272, 2-[6-fluoro-2-(trifluoromethyl)imidazo[1,2-a]pyridin-3-yl]-6-{[4-(trifluoromethyl)phenyl]amino}pyridine-4-carbonitrile] |
| 1 to 10 nM | N#Cc1cc(Nc2ccc(OC(F)F)cc2)nc(-c2c(C(F)(F)F)nc3ccc(F)cn23)c1 [compound 273, 2-{[4-(difluoromethoxy)phenyl]amino}-6-[6-fluoro-2-(trifluoromethyl)imidazo[1,2-a]pyridin-3-yl]pyridine-4-carbonitrile] |
| 10 to 100 nM | CNc1ccc2nc(C)n(-c3cncc(Nc4ccc(C(F)(F)F)cc4)n3)c2c1 [compound 274, N,2-dimethyl-1-(6-{[4-(trifluoromethyl)phenyl]amino}pyrazin-2-yl)-1H-benzimidazol-6-amine] |
| 10 to 100 nM | Cc1nc2ccc(NCc3ccccc3)cc2n1-c1cncc(Nc2ccc(C(F)(F)F)cc2)n1 [compound 275, N-benzyl-2-methyl-1-(6-{[4-(trifluoromethyl)phenyl]amino}pyrazin-2-yl)-1H-benzimidazol-6-amine] |
| 10 to 100 nM | Cc1c(-c2cncc(Nc3ccc(C(F)(F)F)cc3)n2)c(C(F)(F)F)nn1C [compound 276, 6-[1,5-dimethyl-3-(trifluoromethyl)-1H-pyrazol-4-yl]-N-[4-(trifluoromethyl)phenyl]pyrazin-2-amine] |
| 10 to 100 nM | Cc1cccc2c1nc(C)n2-c1cncc(Nc2ccc(C(F)(F)F)cc2)n1 [compound 283, 6-(2,4-dimethyl-1H-benzimidazol-1-yl)-N-[4-(trifluoromethyl)phenyl]pyrazin-2-amine] |
| 100 to 3000 nM | Cc1nc2c([N+](=O)[O-])cccc2n1-c1cncc(Nc2ccc(C(F)(F)F)cc2)n1 [compound 284, 6-(2-methyl-4-nitro-1H-benzimidazol-1-yl)-N-[4-(trifluoromethyl)phenyl]pyrazin-2-amine] |
| 10 to 100 nM | Cc1nc2ccc(N)cc2n1-c1cncc(Nc2ccc(C(F)(F)F)cc2)n1 [compound 285, 2-methyl-1-(6-{[4-(trifluoromethyl)phenyl]amino}pyrazin-2-yl)-1H-benzimidazol-6-amine] |
| 10 to 100 nM | N#Cc1cc(Nc2ccc(C(F)(F)F)cc2)nc(-c2c(CO)nc3ccccn23)c1 [compound 288, 2-[2-(hydroxymethyl)imidazo[1,2-a]pyridin-3-yl]-6-{[4-(trifluoromethyl)phenyl]amino}pyridine-4-carbonitrile] |
| 100 to 3000 nM | Cc1nc2ncccc2n1-c1cc(NC(=O)OC(C)(C)C)cc(Nc2ccc(C(F)(F)F)cc2)n1 [compound 290, tert-butyl[2-(2-methyl-1H-imidazo[4,5-b]pyridin-1-yl)-6-{[4-(trifluoromethyl)phenyl]amino}pyridin-4-yl]carbamate] |
| 10 to 100 nM | OCCNc1cc(Nc2ccc(C(F)(F)F)cc2)nc(-c2c(C(F)(F)F)nc3ccc(F)cn23)c1 [compound 291, 2-[(2-[6-fluoro-2-(trifluoromethyl)imidazo[1,2-a]pyridin-3-yl]-6-{[4-(trifluoromethyl)phenyl]amino}pyridin-4-yl)amino]ethanol] |
| 1 to 10 nM | Cc1nc2ncccc2n1-c1cc(N)cc(Nc2ccc(C(F)(F)F)cc2)n1 [compound 292, 6-(2-methyl-1H-imidazo[4,5-b]pyridin-1-yl)-N^2-[4-(trifluoromethyl)phenyl]pyridine-2,4-diamine] |
| 10 to 100 nM | Fc1cnc2nc(C3CC3)n(-c3cncc(Nc4ccc(C(F)(F)F)cc4)n3)c2c1 [compound 293, 6-(2-cyclopropyl-6-fluoro-1H-imidazo[4,5-b]pyridin-1-yl)-N-[4-(trifluoromethyl)phenyl]pyrazin-2-amine] |
| 100 to 3000 nM | Cc1nc2cc(F)c(F)cc2n1-c1cncc(Nc2ccc(Cl)c(F)c2)n1 [compound 294, N-(4-chloro-3-fluorophenyl)-6-(5,6-difluoro-2-methyl-1H-benzimidazol-1-yl)pyrazin-2-amine] |
| 10 to 100 nM | Cc1nc2cc(F)c(F)cc2n1-c1cncc(Nc2ccc(C(F)(F)F)c(F)c2)n1 [compound 295, 6-(5,6-difluoro-2-methyl-1H-benzimidazol-1-yl)-N-[3-fluoro-4-(trifluoromethyl)phenyl]pyrazin-2-amine] |
| 10 to 100 nM | Cc1nc2c(N)cccc2n1-c1cncc(Nc2ccc(C(F)(F)F)cc2)n1 [compound 296, 2-methyl-1-(6-{[4-(trifluoromethyl)phenyl]amino}pyrazin-2-yl)-1H-benzimidazol-4-amine] |
| 100 to 3000 nM | Cc1nc(Br)cn1-c1cncc(Nc2ccc(C(F)(F)F)cc2)n1 [compound 298, 6-(4-bromo-2-methyl-1H-imidazol-1-yl)-N-[4-(trifluoromethyl)phenyl]pyrazin-2-amine] |
| 100 to 3000 nM | Cc1nc(C)n(-c2cncc(Nc3ccc(C(F)(F)F)cc3)n2)c1Cl [compound 299, 6-(5-chloro-2,4-dimethyl-1H-imidazol-1-yl)-N-[4-(trifluoromethyl)phenyl]pyrazin-2-amine] |
| 10 to 100 nM | Cc1cn(-c2cncc(Nc3ccc(C(F)(F)F)cc3)n2)c(C)n1 [compound 300] |
| 100 to 3000 nM | Cc1nc2cc(F)c(F)cc2n1-c1cncc(Nc2ccc(OC(F)(F)F)c(F)c2)n1 [compound 301, 6-(5,6-difluoro-2-methyl-1H-benzimidazol-1-yl)-N-[3-fluoro-4-(trifluoromethoxy)phenyl]pyrazin-2-amine] |

same assay, conditions: read-out: ELISA EC50 value for Bmi-1 protein, Table 1, Bmi-1 sandwich ELISA

| Structure (SMILES) | EC50 |
| --- | --- |
| Cc1ccc(-c2c(C(F)(F)F)nc3ccccn23)nc1Nc1ccc(C(F)(F)F)cc1 [compound 269, 3-methyl-6-[2-(trifluoromethyl)imidazo[1,2-a]pyridin-3-yl]-N-[4-(trifluoromethyl)phenyl]pyridin-2-amine] | 100 to 3000 nM |
| Cc1c(-c2cncc(Nc3ccc(OC(F)F)cc3)n2)c(C(F)(F)F)nn1C [compound 280, N-[4-(difluoromethoxy)phenyl]-6-[1,5-dimethyl-3-(trifluoromethyl)-1H-pyrazol-4-yl]pyrazin-2-amine] | 10 to 100 nM |
| O=[N+]([O-])c1cc(Nc2ccc(C(F)(F)F)cc2)nc(-c2c(C(F)(F)F)nc3ccc(F)cn23)c1 [compound 286, 6-[6-fluoro-2-(trifluoromethyl)imidazo[1,2-a]pyridin-3-yl]-4-nitro-N-[4-(trifluoromethyl)phenyl]pyridin-2-amine] | 10 to 100 nM |
| Nc1cc(Nc2ccc(C(F)(F)F)cc2)nc(-c2c(C(F)(F)F)nc3ccc(F)cn23)c1 [compound 287, 6-[6-fluoro-2-(trifluoromethyl)imidazo[1,2-a]pyridin-3-yl]-N^2-[4-(trifluoromethyl)phenyl]pyridine-2,4-diamine] | 10 to 100 nM |

Source: US10584115B2, “Substituted pyridine and pyrazine BMI-1 inhibitors” (PTC Therapeutics, Inc., priority 2013, dated 2020)
